From US20130202653A1, “3-ARYL-3-HYDROXY-2-AMINO-PROPIONIC ACID AMIDES, 3-HETEROARYL-3-HYDROXY-2-AMINOPROPIONIC ACID AMIDES AND RELATED COMPOUNDS HAVING ANALGESIC AND/OR IMMUNO STIMULANT ACTIVITY” (Allergan, Inc., priority 2005, published 2013)
Counter-ions that a name gives are not always drawn.

system: tactile allodynia in the rat Chung model; assay: Chung model: reversal of tactile allodynia (von Frey hairs) after spinal nerve ligation; format: in vivo; conditions: 300 μg/kg IP, peak at 30 min post dose, hydrochloride
Source text: An art-accepted model or assay for measuring an analgesic effect of a compound in chronic pain (in particular peripheral neuropathy) is the model known as Kim and Chung 1992, Pain […], pp 355-363 (Chung model). This model involves the surgical ligation of the L5 (and optionally the L6) spinal nerves on one side in experimental animals. Rats recovering from the surgery gain weight and display a level of general activity similar to that of normal rats. However, these rats develop abnormalities of the foot, wherein the hindpaw is moderately everted and the toes are held together. More importantly, the hindpaw on the side affected by the surgery appears to become sensitive to low-threshold mechanical stimuli and will perceive pain instead of the faint sensation of touch. This sensitivity to normally non-painful touch, called “tactile allodynia”, develops within the first week after surgery and lasts for at least two months. The allodynia response includes lifting the affected hindpaw to escape from the stimulus, licking the paw and holding it in the air for many seconds. None of these responses is normally seen in the control group.
To produce the tactile allodynia, rats are anesthetized before surgery. The surgical site is shaved and prepared either with betadine or Novacaine. Incision is made from the thoracic vertebra X111 down toward the sacrum. Muscle tissue is separated from the spinal vertebra (left side) at the L4-S2 levels. The L6 vertebra is located and the transverse process is carefully removed with a small rongeur to expose the L4-L6 spinal nerves. The L5 and L6 spinal nerves are isolated and tightly ligated with 6-0 silk thread. The same procedure is done on the right side as a control, except no ligation of the spinal nerves is performed.
After a complete hemostasis is confirmed, the wounds are sutured. A small amount of antibiotic ointment is applied to the incised area, and the rat is transferred to the recovery plastic cage under a regulated heat-temperature lamp.
On the day of the experiment, at least seven days after the surgery, typically six rats per test group are administered the test drugs by intraperitoneal (i.p.) injection or oral gavage (p.o.). For i.p. administration, the compounds are formulated in H2O and given in a volume of 1 ml/kg body weight by injecting into the intraperitoneal cavity. For p.o. administration, the compounds are formulated in H2O and given in a volume of 1 ml/kg body weight using an 18-gauge, 3 inch gavage needle that is slowly inserted through the esophagus into the stomach.
Tactile allodynia is assessed via von Frey hairs, which are a series of fine hairs with incremental differences in stiffness. Rats are placed in a plastic cage with a wire mesh bottom and allowed to acclimate for approximately 30 minutes. To establish the pre-drug baseline, the von Frey hairs are applied perpendicularly through the mesh to the mid-plantar region of the rats' hindpaw with sufficient force to cause slight buckling and held for 6-8 seconds. The applied force has been calculated to range from 0.41 to 15.1 grams. If the paw is sharply withdrawn, it is considered a positive response. A normal animal will not respond to stimuli in this range, but a surgically ligated paw will be withdrawn in response to a 1-2 gram hair. The 50% paw withdrawal threshold is determined using the method of Dixon, W. J., Ann. Rev. Pharmacol. Toxicol. 20:441-462 (1980) hereby incorporated by reference. Tactile allodynia is measured prior to and 15, 30, and 60 minutes after drug administration. The post-drug threshold is compared to the pre-drug threshold and the percent reversal of tactile sensitivity is calculated based on a normal threshold of 15.1 grams.
Table 1 below indicates the degree of pain reversal obtained in the Chung model with exemplary compounds of the invention. […]

SMILES | Peak % Pain reversal: time post dose [% 30 min]
NC(C(=O)N1CCCC1)C(O)c1ccsc1 (single isomer, unassigned; (-)) [Compound 206, (−)-threo-2-Amino-3-hydroxy-1-(pyrrolidin-1-yl)-3-(thiophen-3-yl)propan-1-one hydrochloride] | 67

same assay, conditions: Rattus norvegicus, ip, 0.5 h, 300 μg/kg IP, peak at 30 min post dose, read-out: Peak % Pain reversal: time post dose

SMILES | inhibition in vivo at 0.3 mg/kg [%]
O=C([C@H](NC1CCCCC1)[C@@H](O)c1ccncc1)N1CCCC1 (racemic) [Compound 69] | 63
C[C@@](O)(c1ccncc1)[C@@H](N)C(=O)N1CCCC1 (racemic) [Compound 239, (±)-erythro-2-Amino-3-hydroxy-3-(pyridin-4-yl)-1-(pyrrolidin-1-yl)butan-1-one dihydrochloride] | 75
CCCCCCCN[C@@H](C(=O)N1CCCC1)[C@@H](O)c1ccncc1 (racemic) [Compound 64, DL-threo-3-Hydroxy-2-(heptylamino)-3-(pyridin-4-yl)-1-(pyrrolidin-1-yl)propan-1-one dihydrochloride] | 100
N[C@@H](C(=O)N1CCCC1)[C@@H](O)c1ccoc1 (racemic) [Compound 27, DL-threo-2-Amino-3-(furan-3-yl)-3-hydroxy-1-(pyrrolidin-1-yl)propan-1-one hydrochloride] | 42
N[C@@H](C(=O)N1CCOCC1)[C@@H](O)c1ccsc1 (racemic) [Compound 230, (±)-threo-2-Amino-3-hydroxy-1-morpholino-3-(thiophen-3-yl)propan-1-one hydrochloride] | 52

same assay, conditions: Rattus norvegicus, ip, 1 h, 30 μg/kg IP, peak at 60 min post dose, read-out: Peak % Pain reversal: time post dose

SMILES | inhibition in vivo at 0.03 mg/kg [%]
NC(C(=O)N1CC[C@H](F)C1)C(O)c1ccncc1 (single isomer, unassigned; (-)) [Compound 248, dihydrochloride] | 59
N[C@@H](Cc1ccncc1)C(=O)N1CCCC1 [Compound 240, (S)-2-amino-3-(pyridin-4-yl)-1-(pyrrolidin-1-yl)propan-1-one dihydrochloride] | 70

same assay, conditions: Rattus norvegicus, ip, 1 h, 300 μg/kg IP, peak at 60 min post dose, read-out: Peak % Pain reversal: time post dose

SMILES | inhibition in vivo at 0.3 mg/kg [%]
O=C([C@@H](NCc1cccc(I)c1)[C@H](O)c1ccncc1)N1CCCC1 [Compound 228, (+)-(2S,3R)-2-(3-iodobenzylamino)-3-hydroxy-3-(pyridin-4-yl)-1-(pyrrolidin-1-yl)-propan-1-one dihydrochloride] | 36
CC(C)(C)OC(=O)N[C@@H](C(=O)N1CCCC1)[C@@H](O)c1ccncc1 (racemic) [Compound 218, tert-butyl(±)-threo-1-hydroxy-3-oxo-1-(pyridin-4-yl)-3-(pyrrolidin-1-yl)propan-2-ylcarbamate hydrochloride] | 32
NCCCCCC(=O)N[C@@H](C(=O)N1CCCC1)[C@@H](O)c1ccncc1 (racemic) [Compound 238, 6-amino-N-((±)-threo-1-hydroxy-3-oxo-1-(pyridin-4-yl)-3-(pyrrolidin-1-yl)propan-2-yl)hexanamide] | 61
NC(C(=O)N1CC[C@@H](F)C1)C(O)c1ccncc1 (stereo partly drawn) [Compound 215, (2S,3R)- & (2R,3S)-2-Amino-1-((R)-3-fluoropyrrolidin-1-yl)-3-hydroxy-3-(pyridin-4-yl)propan-1-one dihydrochlorides] | 73
N[C@@H](C(=O)N1CCCC1)[C@@H](O)c1ccc2ccccc2n1 (racemic) [Compound 30, DL-threo-2-Amino-3-hydroxy-1-(pyrrolidin-1-yl)-3-(quinolin-2-yl)propan-1-one dihydrochloride] | 53
NC(C(=O)N1CCCC1)C(=NO)c1ccncc1 (racemic) [Compound 224, (±)-2-Amino-3-(hydroxyimino)-3-(pyridin-4-yl)-1-(pyrrolidin-1-yl)propan-1-one dihydrochloride] | 51
N[C@H](C(=O)N1CCCC1)[C@@H](O)c1ccncc1 [Compound 221, (+)-(2S,3S)-2-amino-3-hydroxy-3-(pyridin-4-yl)-1-(pyrrolidin-1-yl)propan-1-one dihydrochloride] | 87
CCCCCCCCCC(=O)N[C@@H](C(=O)N1CCCC1)[C@@H](O)c1ccncc1 (racemic) [Compound 59, N-(DL-threo-3-hydroxy-1-oxo-3-(pyridin-4-yl)-1-(pyrrolidin-1-yl)propan-2-yl)decanamide hydrochloride] | 92
O=CN[C@@H](C(=O)N1CCCC1)[C@@H](O)c1ccncc1 (racemic) [Compound 216, N-((±)-threo-1-hydroxy-3-oxo-1-(pyridin-4-yl)-3-(pyrrolidin-1-yl)propan-2-yl)formamide hydrochloride] | 100
N[C@@H](C(=O)N1CCCC1)[C@@H](O)c1ccc2ccccc2c1 (racemic) [Compound 28, DL-threo-2-Amino-3-hydroxy-3-(naphthalen-2-yl)-1-(pyrrolidin-1-yl)propan-1-one hydrochloride] | 92
N[C@H](C(=O)N1CCCC1)[C@H](O)c1ccncc1 [Compound 204, (+)-(2S,3R)-2-Amino-3-hydroxy-3-(pyridin-4-yl)-1-(pyrrolidin-1-yl)propan-1-one dihydrochloride] | 50
N[C@H](Cc1ccncc1)C(=O)N1CCCC1 [Compound 236, (R)-2-amino-3-(pyridin-4-yl)-1-(pyrrolidin-1-yl)propan-1-one dihydrochloride] | 32
O=C([C@H](NCc1cccc(I)c1)[C@@H](O)c1ccncc1)N1CCCC1 [Compound 229, (2R,3S)-2-(3-iodobenzylamino)-3-hydroxy-3-(pyridin-4-yl)-1-(pyrrolidin-1-yl)-propan-1-one dihydrochloride] | 53
NC(C(=O)N1CCCC1)C(O)c1cccnc1 (single isomer, unassigned; (-)) [Compound 207, (−)-threo-2-Amino-3-hydroxy-3-(pyridin-3-yl)-1-(pyrrolidin-1-yl)propan-1-one dihydrochloride] | 96
N[C@@H](C(=O)N1CCCC1)[C@@H](O)c1ccncc1 [Compound 203, (−)-(2R,3S)-2-Amino-3-hydroxy-3-(pyridin-4-yl)-1-(pyrrolidin-1-yl)propan-1-one dihydrochloride] | 87
CN[C@@H](C(=O)N1CCCC1)[C@@H](O)c1ccncc1 (racemic) [Compound 61, DL-threo-3-Hydroxy-2-(methylamino)-3-(pyridin-4-yl)-1-(pyrrolidin-1-yl)propan-1-one dihydrochloride] | 64
N[C@@H](C(=O)N1CCCC1)[C@@H](O)c1ccnc(Cl)c1 (racemic) [Compound 41, DL-threo-2-Amino-3-(2-chloropyridin-4-yl)-3-hydroxy-1-(pyrrolidin-1-yl)propan-1-one dihydrochloride] | 70
N[C@@H](C(=O)N1CCCC1)[C@@H](O)c1ccncc1Cl (racemic) [Compound 43, DL-threo-2-Amino-3-(3-chloropyridin-4-yl)-3-hydroxy-1-(pyrrolidin-1-yl)propan-1-one dihydrochloride] | 96

same assay, conditions: Rattus norvegicus, po, 1 h, 30 μg/kg PO, peak at 60 min post dose, read-out: Peak % Pain reversal: time post dose

SMILES | inhibition in vivo at 0.03 mg/kg [%]
N[C@@H](C(=O)N1CCCC1)[C@@H](O)c1ccsc1 (racemic) [Compound 23, DL-threo-2-Amino-3-hydroxy-1-(pyrrolidin-1-yl)-3-(thiophen-3-yl)propan-1-one hydrochloride] | 100

same assay, conditions: Rattus norvegicus, po, 1 h, 300 μg/kg PO, peak at 60 min post dose, read-out: Peak % Pain reversal: time post dose

SMILES | inhibition in vivo at 0.3 mg/kg [%]
O=C([C@H](NCc1ccc(Cl)c(Cl)c1)[C@@H](O)c1ccncc1)N1CCCC1 (racemic) [Compound 68, DL-threo-2-(3,4-Dichlorobenzylamino)-3-hydroxy-3-(pyridin-4-yl)-1-(pyrrolidin-1-yl)propan-1-one dihydrochloride] | 94
